# Laboratory results taken from patent publication EP4635500A1, “THERAPEUTIC AGENT FOR BACTERIAL INFECTION” (Sumitomo Pharma Co., Ltd., priority 2022, dated 2024).
# Where two headings read alike, the source gives them in different places.
# Tests used:
# Assay type in all cases: cell-based
# Morganella morganii = experiment: MIC and MBC, broth microdilution (Example 4, Table 3); settings: Morganella morganii CDC-57 (NDM-1)
# Serratia marcescens = experiment: as above; settings: Serratia marcescens CDC-124 (SME-3)
# Enterobacter aerogenes = experiment: as above
# Fusobacterium spp. = experiment: MIC, agar dilution, anaerobic bacteria (Example 9, Tables 20, 25)
# Gram-positive bacteria = experiment: MIC, agar dilution, anaerobic bacteria (Example 9, Tables 21, 26)
# Porphyromonas spp. = experiment: MIC, agar dilution, anaerobic bacteria (Example 9, Tables 19, 24); settings: for MIC: (n)=Compound A µg/mL, 0=Compound A alone antibacterial
# [1] = tested on: Serine-carbapenemase producing strains (N = 19); experiment: MIC50/MIC90 for carbapenemase-producing isolates (Example 5, Table 6); set-up: unit not given here; settings: Serine-carbapenemase (N = 19): KPC-2 (7), KPC-3 (8), KPC-38 (1), OXA-48 (2), OXA-181 (1)
compound,measurement,setting,value
"CC(C)(O/N=C(\C(=O)N[C@@H]1C(=O)N2C(C(=O)[O-])=C(C[n+]3ccccc3)CS[C@H]12)c1csc(N)n1)C(=O)O [CAZ, ceftazidime]",MBC,Morganella morganii,> 128 µg/mL
same,MIC,Morganella morganii,> 128 µg/mL
same,MBC,Serratia marcescens,64 µg/mL
same,MBC/MIC ratio,Serratia marcescens,256
same,MIC,Serratia marcescens,0.25 µg/mL
same,MBC/MIC ratio,Enterobacter aerogenes; Enterobacter aerogenes CDC-161 (IMP-4),1
same,MBC,Enterobacter aerogenes; Klebsiella aerogenes,128 µg/mL
same,MIC,Enterobacter aerogenes; Klebsiella aerogenes,128 µg/mL
Cc1ncc([N+](=O)[O-])n1CCO [Metronidazole],MIC50,Fusobacterium spp.; Fusobacterium spp.,≤ 0.12 µg/mL
same,MICrange,Fusobacterium spp.; Fusobacterium spp.,≤0.12 to 0.5 µg/mL
same,MIC90,"Fusobacterium spp.; Fusobacterium, Fusobacterium spp.",0.25 µg/mL
same,MIC,"Fusobacterium spp.; Fusobacterium, KUB No. 6692 Fusobacterium sp.",≤ 0.12 µg/mL
same,MIC,"Fusobacterium spp.; Fusobacterium, KUB No. 6693 Fusobacterium nucleatium",0.25 µg/mL
same,MIC,"Fusobacterium spp.; Fusobacterium, KUB No. 6708 Fusobacterium necrophorun",≤ 0.12 µg/mL
same,MIC,"Fusobacterium spp.; Fusobacterium, KUB No. 6715 Fusobacterium sp.",≤ 0.12 µg/mL
same,MIC,"Fusobacterium spp.; Fusobacterium, KUB No. 6716 Fusobacterium nuncleatum",≤ 0.12 µg/mL
same,MIC,"Fusobacterium spp.; Fusobacterium, KUB No. 6719 Fusobacterium sp.",≤ 0.12 µg/mL
same,MIC,"Fusobacterium spp.; Fusobacterium, KUB No. 6725 Fusobacterium sp.",≤ 0.12 µg/mL
same,MIC,Fusobacterium spp.; KUB No. 2741 Fusobacterium varium ATCC 27725,0.25 µg/mL
same,MIC,Fusobacterium spp.; KUB No. 2742 Fusobacterium nucleatum ATCC 25586,≤ 0.12 µg/mL
same,MIC,Fusobacterium spp.; KUB No. 6694 Fusobacterium necrophorum,≤ 0.12 µg/mL
same,MIC,Fusobacterium spp.; KUB No. 6695 Fusobacterium necrophorum,0.5 µg/mL
same,MIC,Fusobacterium spp.; KUB No. 6696 Fusobacterium necrophorum,≤ 0.12 µg/mL
same,MIC,Fusobacterium spp.; KUB No. 6697 Fusobacterium nucleatum,≤ 0.12 µg/mL
same,MIC,Fusobacterium spp.; KUB No. 6698 Fusobacterium nucleatum,≤ 0.12 µg/mL
same,MIC,Fusobacterium spp.; KUB No. 6699 Fusobacterium necrophorum,≤ 0.12 µg/mL
same,MIC,Fusobacterium spp.; KUB No. 6700 Fusobacterium nucleatum,≤ 0.12 µg/mL
same,MIC,Fusobacterium spp.; KUB No. 6702 Fusobacterium necrophorum,0.25 µg/mL
same,MIC,Fusobacterium spp.; KUB No. 6710 Fusobacterium necrophorum,0.25 µg/mL
same,MIC,Fusobacterium spp.; KUB No. 6720 Fusobacterium nucleatum,≤ 0.12 µg/mL
same,MIC,Fusobacterium spp.; KUB No. 6724 Fusobacterium nucleatum,≤ 0.12 µg/mL
same,MIC,"Gram-positive bacteria; ATCC43255, KUB No. 3518 Clostridioides difficile ATCC 43255, read-out: MIC",0.5 µg/mL
same,MIC,"Gram-positive bacteria; ATCC700057, KUB No. 2978 Clostridioides difficile ATCC 700057, read-out: MIC",0.5 µg/mL
same,MIC,"Gram-positive bacteria; ATCCBAA1803, KUB No. 3511 Clostridioides difficile ATCC BAA-1803, read-out: MIC",1 µg/mL
same,MIC,"Gram-positive bacteria; ATCCBAA1870, KUB No. 3385 Clostridioides difficile ATCC BAA-1870, read-out: MIC",0.5 µg/mL
same,MIC,"Gram-positive bacteria; Cutibacterium acnes, ATCC11827",> 64 µg/mL
same,MIC,"Gram-positive bacteria; Finegoldia magna, ATCC29328",1 µg/mL
same,MIC50,"Gram-positive bacteria; Gram-positive bacteria, read-out: MIC50",0.5 µg/mL
same,MIC90,"Gram-positive bacteria; Gram-positive bacteria, read-out: MIC90",2 µg/mL
same,MIC,"Gram-positive bacteria; KUB No. 3013 Bulleidia extructa, read-out: MIC",2 µg/mL
same,MIC,"Gram-positive bacteria; KUB No. 3014 Atropobium rimae, read-out: MIC",2 µg/mL
same,MIC,Gram-positive bacteria; Olsenella uli,2 µg/mL
same,MIC,"Gram-positive bacteria; Peptoniphilus asaccharolyticus, ATCC14963",0.5 µg/mL
same,MIC,Gram-positive bacteria; Peptoniphilus indolicus,0.25 µg/mL
same,MIC,Gram-positive bacteria; Peptostreptococcus anaerobius,0.5 µg/mL
same,MIC,"Gram-positive bacteria; Schaalia odontolytica, ATCC17929, KUB No. 3488 Actinomyces odontolyticus ATCC 17929, read-out: MIC",32 µg/mL
same,MIC,Porphyromonas spp.; KUB No. 6663 Porphyromonas gingivalis,≤ 0.12 µg/mL
same,MIC,Porphyromonas spp.; KUB No. 6666 Porphyromonas gingivalis,≤ 0.12 µg/mL
same,MIC,Porphyromonas spp.; KUB No. 6667 Porphyromonas gingivalis,≤ 0.12 µg/mL
same,MIC,Porphyromonas spp.; KUB No. 6668 Porphyromonas gingivalis,≤ 0.12 µg/mL
same,MIC,Porphyromonas spp.; KUB No. 6669 Porphyromonas gingivalis,≤ 0.12 µg/mL
same,MIC,Porphyromonas spp.; KUB No. 6670 Porphyromonas gingivalis,≤ 0.12 µg/mL
same,MIC,Porphyromonas spp.; KUB No. 6671 Porphyromonas gingivalis,≤ 0.12 µg/mL
same,MIC,Porphyromonas spp.; KUB No. 6672 Porphyromonas gingivalis,≤ 0.12 µg/mL
same,MIC,Porphyromonas spp.; KUB No. 6673 Porphyromonas gingivalis,≤ 0.12 µg/mL
same,MIC,Porphyromonas spp.; KUB No. 6674 Porphyromonas gingivalis,≤ 0.12 µg/mL
same,MIC,Porphyromonas spp.; KUB No. 6676 Porphyromonas gingivalis,≤ 0.12 µg/mL
same,MIC,Porphyromonas spp.; KUB No. 6677 Porphyromonas gingivalis,≤ 0.12 µg/mL
same,MIC,Porphyromonas spp.; KUB No. 6678 Porphyromonas gingivalis,≤ 0.12 µg/mL
same,MIC,Porphyromonas spp.; KUB No. 6679 Porphyromonas gingivalis,≤ 0.12 µg/mL
same,MIC,Porphyromonas spp.; KUB No. 6680 Porphyromonas gingivalis,≤ 0.12 µg/mL
same,MIC,Porphyromonas spp.; KUB No. 6681 Porphyromonas gingivalis,≤ 0.12 µg/mL
same,MIC,Porphyromonas spp.; KUB No. 6682 Porphyromonas gingivalis,≤ 0.12 µg/mL
same,MIC,Porphyromonas spp.; KUB No. 6683 Porphyromonas gingivalis,≤ 0.12 µg/mL
same,MIC,Porphyromonas spp.; KUB No. 6684 Porphyromonas gingivalis,≤ 0.12 µg/mL
same,MIC,Porphyromonas spp.; KUB No. 6685 Porphyromonas gingivalis,≤ 0.12 µg/mL
same,MIC,Porphyromonas spp.; KUB No. 6686 Porphyromonas gingivalis,≤ 0.12 µg/mL
same,MIC,Porphyromonas spp.; KUB No. 6687 Porphyromonas gingivalis,≤ 0.12 µg/mL
same,MIC,Porphyromonas spp.; KUB No. 6688 Porphyromonas gingivalis,≤ 0.12 µg/mL
same,MIC,"Porphyromonas spp.; Porphyromonas, KUB No. 6665 Porphyromonas assaccharolytica",≤ 0.12 µg/mL
same,MIC50,"Porphyromonas spp.; Porphyromonas, table at the place of Table 24, Prevotella spp., read-out: MIC50",≤ 0.12 µg/mL
same,MIC90,"Porphyromonas spp.; Porphyromonas, table at the place of Table 24, Prevotella spp., read-out: MIC90",≤ 0.12 µg/mL
same,MICrange,"Porphyromonas spp.; table at the place of Table 24, Prevotella spp.",≤0.12 µg/mL
colistin,MIC50,[1],0.25
same,MIC90,[1],2
